Measured values published in patent US20210403573A1, “METHODS AND PHARMACEUTICAL COMPOSITIONS FOR THE TREATMENT OF FIBROSIS WITH AGENTS CAPABLE OF INHIBITING THE ACTIVATION OF MUCOSAL-ASSOCIATED INVARIANT T (MAIT) CELLS” (INSERM (Institut National de la Santé et de la Recherche …, priority 2017, published 2021).

Molecular target: T1, MR1 (Homo sapiens, UniProt Q95460)
T1 construct: endogenous in cells; host or cells: human hepatic myofibroblasts (HMF), alone or in co-culture with MAIT cells
Assay: Surface expression of MR1 on hepatic myofibroblasts by flow cytometry
Assay type: cell-based
Conditions: 1 μM, 2 hrs at 37° C., PE-conjugated anti MR1 antibody (26.5)
Method: Analysis of Surface Expression of MR1 on Hepatic Myofibroblasts by Flow Cytometry
Hepatic myofibroblast cultures or HMF/MAIT cell co-cultures were exposed to 1 μM Acetyp 6-formylpterin (Ac 6-FP) (Schircks Laboratories, Switzerland) for 2 hrs at 37° C. Cells were then washed, trypsinised, labeled with PE-conjugated anti MR1 antibody (26.5)/isotype control and subjected to flow cytometric analysis.

surface expression of MR1 on hepatic myofibroblasts: enhanced
Substance: Acetyl-6-formyl-pterin [Acetyl-6-formyl-pterin (6FP)]
